These are literature values, as cited in patent US20160143979A1, “Long Pepper Extract an Effective Anticancer Treatment” (priority 2014, published 2016).

This series relates to cancer cells. Particulars: previous study.

For the compound `COc1cc(/C=C/C(=O)N2CCC=CC2=O)cc(OC)c1OC` [piperlongumine], the “concentration required for significant cell death induction” value is listed as 10.
